Consider 19 compounds from patent publication US20230143612A1 (Arbutus Biopharma Corporation, priority 2020, published 2023).

In the test the target is PD-L1 His protein / PD-1 Fc protein (Homo sapiens, UniProt Q9NZQ7). Kind of test: HTRF Assay (PD-1/PD-L1 interaction). It is filed as binding. The conditions noted are these: PD-L1 His 6 nM, PD-1 Fc 6 nM. Summed up:
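HTRF: PD-L1 His (6 nM final), compound (3-fold dilutions, 20 μM to 0.001 μM final) and PD-1 Fc (6 nM final) preincubated 15 min at room temperature. Anti-human IgG-XL665 and anti-6HIS Tb cryptate (mixed at 6.7 nM and 0.35 nM) then added for 1 h at room temperature before reading.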
For orientation: TR-FRET usually uses a lanthanide donor and a delayed reading to cut background.

Sequence of PD-L1 His protein / PD-1 Fc protein (Q9NZQ7 19-238 limits assumed): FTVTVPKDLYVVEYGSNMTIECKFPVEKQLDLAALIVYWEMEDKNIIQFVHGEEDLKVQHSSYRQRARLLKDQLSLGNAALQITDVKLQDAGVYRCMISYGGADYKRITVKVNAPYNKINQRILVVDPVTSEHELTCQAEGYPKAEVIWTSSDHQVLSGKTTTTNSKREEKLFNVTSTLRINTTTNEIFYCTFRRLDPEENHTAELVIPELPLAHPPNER

The compound `COc1nc(-c2cccc(-c3cccc(-c4cc5c(=O)n(C)c(CNCC(C)(C)O)nn5c4)c3Cl)c2Cl)cc(Cl)c1CNC[C@@H]1CCC(=O)N1` [Example 478, (S)-6-(2,2′-Dichloro-3′-(4-chloro-6-methoxy-5-((((5-oxopyrrolidin-2-yl)methyl)amino)methyl)pyridin-2-yl)-[1,1′-biphenyl]-3-yl)-2-(((2-hydroxy-2-methylpropyl)amino)methyl)-3-methylpyrrolo[2,1-f][1,2,4]triazin-4(3H)-one] registered an IC50 of 29 nM. `COc1nc(-c2cccc(-c3cccc(-c4cc5c(=O)n(C)c(CNC(C)(C)C)nn5c4)c3Cl)c2Cl)ccc1CNC[C@@H]1CCC(=O)N1` [Example 479, 2-[(tert-Butylamino)methyl]-6-[2-chloro-3-[2-chloro-3-[6-methoxy-5-[[[(2S)-5-oxopyrrolidin-2-yl]methylamino]methyl]-2-pyridyl]phenyl]phenyl]-3-methyl-pyrrolo[2,1-f][1,2,4]triazin-4-one] displayed an IC50 of 14 nM.

As to `COc1nc(-c2cccc(-c3cccc(-c4cc5c(=O)n(C)c(CNC[C@@H](O)CC(=O)N(C)C)nn5c4)c3Cl)c2Cl)ccc1CNC[C@@H]1CCC(=O)N1` [Example 481, (S)-4-(((6-(2,2′-Dichloro-3′-(6-methoxy-5-(((((S)-5-oxopyrrolidin-2-yl)methyl)amino)methyl)pyridin-2-yl)-[1,1′-biphenyl]-3-yl)-3-methyl-4-oxo-3,4-dihydropyrrolo[2,1-f][1,2,4]triazin-2-yl)methyl)amino)-3-hydroxy-N,N-dimethylbutanamide], it took 42 nM to reach half-maximal inhibition (IC50).

Turning to `COC(=O)CNCc1nn2cc(-c3cccc(-c4cccc(-c5ccc(CNC[C@@H]6CCC(=O)N6)c(OC)n5)c4Cl)c3Cl)cc2c(=O)n1C` [Example 482, Methyl 2-[[6-[2-chloro-3-[2-chloro-3-[6-methoxy-5-[[[(2S)-5-oxopyrrolidin-2-yl]methylamino]methyl]-2-pyridyl]phenyl]phenyl]-3-methyl-4-oxo-pyrrolo[2,1-f][1,2,4]triazin-2-yl]methylamino]acetate], 28 nM corresponded to half-maximal inhibition (IC50). Against the preceding compound, the IC50 is about 1.5-fold lower. Regarding `COc1nc(-c2cccc(-c3cccc(N4Cc5ccc(CNC[C@@H]6CCC(=O)N6)cc5C4=O)c3Cl)c2Cl)ccc1CNC[C@@H]1CCC(=O)N1` [Example 483, 2-(2,2′-Dichloro-3′-(6-methoxy-5-(((((S)-5-oxopyrrolidin-2-yl)methyl)amino)methyl)pyridin-2-yl)-[1,1′-biphenyl]-3-yl)-6-(((((S)-5-oxopyrrolidin-2-yl)methyl)amino)methyl)isoindolin-1-one], the IC50 came out at 0.1 nM. This IC50 is about 280-fold lower than that of the compound before. Compound `COc1cc(-c2cccc(-c3cccc(-c4ccc(CNC[C@@H]5CCC(=O)N5)c(OC)n4)c3Cl)c2Cl)cc2c1CN(CCC1(O)CCC1)CC2` [Example 484, (S)-5-((((6-(2,2′-Dichloro-3′-(2-(2-(1-hydroxycyclobutyl)ethyl)-8-methoxy-1,2,3,4-tetrahydroisoquinolin-6-yl)-[1,1′-biphenyl]-3-yl)-2-methoxypyridin-3-yl)methyl)amino)methyl)pyrrolidin-2-one] yielded an IC50 of 0.3 nM.

For `COc1cc(-c2cccc(-c3cccc(-c4ccc(CNC[C@@H]5CCC(=O)N5)c(OC)n4)c3Cl)c2Cl)cc2c1CN(CCC(C)(C)O)CC2` [Example 485, (S)-5-((((6-(2,2′-Dichloro-3′-(2-(3-hydroxy-3-methylbutyl)-8-methoxy-1,2,3,4-tetrahydroisoquinolin-6-yl)-[1,1′-biphenyl]-3-yl)-2-methoxypyridin-3-yl)methyl)amino)methyl)pyrrolidin-2-one], the IC50 turned out to be 0.1 nM.

`COc1nc(-c2cccc(-c3cccc(-c4cc5c(=O)n(C)c(CN[C@H]6CC[C@H](O)CC6)nn5c4)c3Cl)c2Cl)ccc1CNC[C@@H]1CCC(=O)N1` [Example 486, 6-[2-Chloro-3-[2-chloro-3-[6-methoxy-5-[[[(2S)-5-oxopyrrolidin-2-yl]methylamino]methyl]-2-pyridyl]phenyl]phenyl]-2-[[(4-hydroxycyclohexyl)amino]methyl]-3-methyl-pyrrolo[2,1-f][1,2,4]triazin-4-one] yielded an IC50 of 0.4 nM. In turn, `COc1nc(-c2cccc(-c3cccc(-c4cc5c(=O)n(C)c(CNCC(=O)O)nn5c4)c3Cl)c2Cl)ccc1CNC[C@@H]1CCC(=O)N1` [Example 487, 2-[[6-[2-Chloro-3-[2-chloro-3-[6-methoxy-5-[[[(2S)-5-oxopyrrolidin-2-yl]methylamino]methyl]-2-pyridyl]phenyl]phenyl]-3-methyl-4-oxo-pyrrolo[2,1-f][1,2,4]triazin-2-yl]methylamino]acetic acid] showed an IC50 of 0.1 nM. `COc1cc(-c2cccc(-c3cccc(-c4ccc(CNC[C@@H]5CCC(=O)N5)c(OC)n4)c3Cl)c2Cl)cc2c1CN(CC(O)C(C)C)CC2` (stereo partly drawn) [Example 488, (5S)-5-((((6-(2,2′-Dichloro-3′-(2-(2-hydroxy-3-methylbutyl)-8-methoxy-1,2,3,4-tetrahydroisoquinolin-6-yl)-[1,1′-biphenyl]-3-yl)-2-methoxypyridin-3-yl)methyl)amino)methyl)pyrrolidin-2-one] yielded an IC50 of 0.2 nM. Against the preceding compound, the IC50 is about 2-fold higher. For the compound `COC(=O)C[C@H](O)CNCc1nn2cc(-c3cccc(-c4cccc(-c5ccc(CNC[C@@H]6CCC(=O)N6)c(OC)n5)c4Cl)c3Cl)cc2c(=O)n1C` [Example 489, Methyl (3S)-4-[[6-[2-chloro-3-[2-chloro-3-[6-methoxy-5-[[[(2S)-5-oxopyrrolidin-2-yl]methylamino]methyl]-2-pyridyl]phenyl]phenyl]-3-methyl-4-oxo-pyrrolo[2,1-f][1,2,4]triazin-2-yl]methylamino]-3-hydroxy-butanoate], the IC50 was found to be 1500 nM. On to `COc1nc(-c2cccc(-c3cccc(-c4cc5c(=O)n(C)c(CNCCCF)nn5c4)c3Cl)c2Cl)cc(Cl)c1CNC[C@@H]1CCC(=O)N1` [Example 490, (S)-6-(2,2′-Dichloro-3′-(4-chloro-6-methoxy-5-((((5-oxopyrrolidin-2-yl)methyl)amino)methyl)pyridin-2-yl)-[1,1′-biphenyl]-3-yl)-2-(((3-fluoropropyl)amino)methyl)-3-methylpyrrolo[2,1-f][1,2,4]triazin-4(3H)-one], for which half-maximal inhibition (IC50) required 0.1 nM. The compound `COc1nc(-c2cccc(-c3cccc(-c4cc5c(=O)n(C)c(CNCCO)nn5c4)c3Cl)c2Cl)cc(Cl)c1CNC[C@@H]1CCC(=O)N1` [Example 491, (S)-6-(2,2′-Dichloro-3′-(4-chloro-6-methoxy-5-((((5-oxopyrrolidin-2-yl)methyl)amino)methyl)pyridin-2-yl)-[1,1′-biphenyl]-3-yl)-2-(((2-hydroxyethyl)amino)methyl)-3-methylpyrrolo[2,1-f][1,2,4]triazin-4(3H)-one] had an IC50 of 0.7 nM. Regarding `COc1nc(-c2cccc(-c3cccc(-c4cc5c(=O)n(C)c(CN6CC(C)(O)C6)nn5c4)c3Cl)c2Cl)cc(Cl)c1CNC[C@@H]1CCC(=O)N1` [Example 492, (S)-6-(2,2′-Dichloro-3′-(4-chloro-6-methoxy-5-((((5-oxopyrrolidin-2-yl)methyl)amino)methyl)pyridin-2-yl)-[1,1′-biphenyl]-3-yl)-2-((3-hydroxy-3-methylazetidin-1-yl)methyl)-3-methylpyrrolo[2,1-f][1,2,4]triazin-4(3H)-one], half-maximal inhibition (IC50) required 0.6 nM. `COc1nc(-c2cccc(-c3cccc(-c4cc5c(=O)n(C)c(CNC[C@@H](O)CC(=O)O)nn5c4)c3Cl)c2Cl)ccc1CNC[C@@H]1CCC(=O)N1` [Example 493, (3S)-4-[[6-[2-Chloro-3-[2-chloro-3-[6-methoxy-5-[[[(2S)-5-oxopyrrolidin-2-yl]methylamino]methyl]-2-pyridyl]phenyl]phenyl]-3-methyl-4-oxo-pyrrolo[2,1-f][1,2,4]triazin-2-yl]methylamino]-3-hydroxy-butanoic acid] gave an IC50 of 0.1 nM. The same measure for `COc1nc(-c2cccc(-c3cccc(-c4ccc(CN5CCCC[C@H]5C(=O)O)c(OC)n4)c3Cl)c2Cl)ccc1CNC[C@@H]1CCC(=O)N1` [Example 494, (S)-1-((6-(2,2′-Dichloro-3′-(6-methoxy-5-(((((S)-5-oxopyrrolidin-2-yl)methyl)amino)-methyl)pyridin-2-yl)-[1,1′-biphenyl]-3-yl)-2-methoxypyridin-3-yl)methyl)piperidine-2-carboxylic acid]: 0.1 nM; for `COC(=O)C(C)(C)CNCc1nn2cc(-c3cccc(-c4cccc(-c5ccc(CNC[C@@H]6CCC(=O)N6)c(OC)n5)c4Cl)c3Cl)cc2c(=O)n1C` [Example 495, Methyl 3-[[6-[2-chloro-3-[2-chloro-3-[6-methoxy-5-[[[(2S)-5-oxopyrrolidin-2-yl]methylamino]methyl]-2-pyridyl]phenyl]phenyl]-3-methyl-4-oxo-pyrrolo[2,1-f][1,2,4]triazin-2-yl]methylamino]-2,2-dimethyl-propanoate]: 0.7 nM.

In turn, `COc1nc(-c2cccc(-c3cccc(-c4cc5c(=O)n(C)c(CNCCC(F)F)nn5c4)c3Cl)c2Cl)ccc1CNC[C@@H]1CCC(=O)N1` [compound 465, (S)-6-(2,2′-Dichloro-3′-(6-methoxy-5-((((5-oxopyrrolidin-2-yl)methyl)amino)methyl)pyridin-2-yl)-[1,1′-biphenyl]-3-yl)-2-(((3,3-difluoropropyl)amino)methyl)-3-methylpyrrolo[2,1-f][1,2,4]triazin-4(3H)-one] displayed an IC50 of 14 nM. Take `COc1nc(-c2cccc(-c3cccc(-c4cc5c(=O)n(C)c(CNC6CC(C)(O)C6)nn5c4)c3Cl)c2Cl)cc(F)c1CNC[C@@H]1CCC(=O)N1` (stereo partly drawn) [compound 480, (S)-6-(2,2′-dichloro-3′-(4-fluoro-6-methoxy-5-((((5-oxopyrrolidin-2-yl)methyl)amino)methyl)pyridin-2-yl)-[1,1′-biphenyl]-3-yl)-2-(((3-hydroxy-3-methylcyclobutyl)amino)methyl)-3-methylpyrrolo[2,1-f][1,2,4]triazin-4(3H)-one]: the IC50 is 69 nM.

The term IC50 denotes the concentration needed to halve the response being measured.
